Assay: Urinary excretion study in rats after oral NS, SF or CNS (LC–MS/MS)
Assay type: in vivo
Conditions: for concentration at 2 h / concentration at 4 h / concentration at 8 h / concentration at 12 h / concentration at 24 h / concentration at 36 h / concentration at 48 h / concentration at 72 h / concentration at 96 h / concentration at 120 h / concentration at 6 h: male, Sprague Dawley, rat, urine, oral; for Accumulative excretion amount / Accumulative excretion percentage / Excretion amount: rat urine
Method: The animal room was set at constant temperature of 20 ± 2 °C with humidity of 50 ± 20% and 12/12 h light/dark cycle.
Eighteen male rats were fasted for 12 h before starting the experiment. The rats were divided into three groups at random (n = 6) and received NS (60 mg/kg), SF (50 mg/kg), and NS (60 mg/kg) + SF (50 mg/kg), respectively, by oral gavage. The rats were placed in separate metabolic cages. The urine samples were collected at 0–2, 2–4, 4–6, 6–8, 8–12, 12–24, 24–36, 36–48, 48–72, 72–96, and 96–120 h. The feces samples were collected at 0–4, 4–8, 8–12, 12–24, 24–36, 36–48, 48–72, 72–96, and 96–120 h. The urine volume was recorded and the dry feces were measured for each collection period. Samples were stored at −80 °C until analysis.
An aliquot of 200 μL urine sample was mixed with 10 μL of IS and evaporated to dryness with a ZLS-2 vacuum centrifugal concentrator (Herexi Co., Ltd., Changsha, Hunan, China). The residue was reconstituted in 100 μL of 50% methanol vortexed for 2 min and centrifuged at 12,000 rpm for 15 min. Finally, a 1 μL aliquot was injected for LC–MS analysis.
Ultra fast liquid chromatography (UFLC) analysis was performed using a Shimadzu UFLC system (DGU-20A3R Degasser; LC-20AD pump; SIL-20AXR Autosampler; CTO-20AC Column Oven) (Nakagyo-Ku, Koyoto, Japan). […] Because of the different endogenous substances in the urine and feces samples, different elution gradients were used to alleviate the matrix effects for the analytes.
The mass spectrometric detection was performed on an ABSciex 4500 Qtrap mass spectrometer (ABSciex, Foster City, CA, USA) equipped with a negative electrospray ionization (ESI) interface using multiple reaction monitoring (MRM). The MS parameters were optimized under the selected ion monitoring conditions as follows: curtain gas, 35 psi; ionspray voltage, 4500 V; turbo gas temperature, 450 °C; GS1, 45 psi; GS2, 45 psi. All data were acquired and analyzed by Analyst software (Versions 1.6.2) from ABSciex.
The accumulative excretion percentage was calculated for each analyte as follows. Excretion at time (t) = [concentration of the analyte (ng/mL) at t] × total urine (or feces) volume (mL) at t. The cumulative excretion up to time t (mg) was expressed as a percent (%) cumulative excretion by dividing by the total amount of the analyte ingested (mg): % Cumulative Excretion = 100 × (Σt excretiont) total ingested.

CC(C)=CCC[C@](C)(O[C@@H]1O[C@H](CO)[C@@H](O)[C@H](O)[C@H]1O)[C@H]1CC[C@]2(C)[C@@H]1[C@H](O)C[C@@H]1[C@@]3(C)CC[C@H](O)C(C)(C)[C@@H]3[C@@H](O[C@@H]3O[C@H](CO)[C@@H](O)[C@H](O)[C@H]3O[C@@H]3O[C@@H](C)[C@H](O)[C@@H](O)[C@H]3O)C[C@]12C [ginsenoside Re]
concentration at 2 h (60 mg/kg, oral NS 60 mg/kg, 2 h): 289 ± 689 ng/mL
concentration at 4 h (60 mg/kg, oral NS 60 mg/kg, 4 h): 91 ± 119 ng/mL
concentration at 8 h (60 mg/kg, oral NS 60 mg/kg, 8 h): 40 ± 26 ng/mL
concentration at 12 h (60 mg/kg, oral NS 60 mg/kg, 12 h): 33 ± 24 ng/mL
concentration at 24 h (60 mg/kg, oral NS 60 mg/kg, 24 h): 17 ± 34 ng/mL
concentration at 36 h (60 mg/kg, oral NS 60 mg/kg, 36 h): 15 ± 23 ng/mL
concentration at 48 h (60 mg/kg, oral NS 60 mg/kg, 48 h): 13 ± 24 ng/mL
concentration at 72 h (60 mg/kg, oral NS 60 mg/kg, 72 h): 17 ± 37 ng/mL
concentration at 96 h (60 mg/kg, oral NS 60 mg/kg, 96 h): 7 ± 13 ng/mL
concentration at 120 h (60 mg/kg, oral NS 60 mg/kg, 120 h): 4 ± 8 ng/mL
concentration at 2 h (oral CNS 110 mg/kg, 2 h): 86 ± 88 ng/mL
concentration at 4 h (oral CNS 110 mg/kg, 4 h): 70 ± 89 ng/mL
concentration at 6 h (oral CNS 110 mg/kg, 6 h): 39 ± 27 ng/mL
concentration at 8 h (oral CNS 110 mg/kg, 8 h): 41 ± 35 ng/mL
concentration at 12 h (oral CNS 110 mg/kg, 12 h): 35 ± 41 ng/mL
concentration at 24 h (oral CNS 110 mg/kg, 24 h): 369 ± 963 ng/mL
concentration at 36 h (oral CNS 110 mg/kg, 36 h): 24 ± 38 ng/mL
concentration at 48 h (oral CNS 110 mg/kg, 48 h): 6 ± 7 ng/mL
concentration at 72 h (oral CNS 110 mg/kg, 72 h): 5 ± 7 ng/mL
concentration at 96 h (oral CNS 110 mg/kg, 96 h): 3 ± 5 ng/mL
concentration at 120 h (oral CNS 110 mg/kg, 120 h): 4 ± 8 ng/mL
concentration at 6 h (oral NS 60 mg/kg, 6 h): 32 ± 30 ng/mL
Accumulative excretion amount (oral CNS 110 mg/kg, 2 h): 0.133 ± 0.062 µg
Accumulative excretion percentage (oral CNS 110 mg/kg, 2 h): 0.028±0.013%
Accumulative excretion amount (oral CNS 110 mg/kg, 4 h): 0.193 ± 0.131 µg
Accumulative excretion percentage (oral CNS 110 mg/kg, 4 h): 0.041±0.028%
Excretion amount (oral CNS 110 mg/kg, 4 h): 0.100 ± 0.090 µg
Accumulative excretion amount (oral CNS 110 mg/kg, 6 h): 0.231 ± 0.118 µg
Accumulative excretion percentage (oral CNS 110 mg/kg, 6 h): 0.049± 0.025%
Excretion amount (oral CNS 110 mg/kg, 6 h): 0.064 ± 0.030 µg
Accumulative excretion amount (oral CNS 110 mg/kg, 8 h): 0.289 ± 0.121 µg
Accumulative excretion percentage (oral CNS 110 mg/kg, 8 h): 0.061±0.026%
Excretion amount (oral CNS 110 mg/kg, 8 h): 0.072 ± 0.033 µg
Accumulative excretion amount (oral CNS 110 mg/kg, 12 h): 0.324 ± 0.110 µg
Accumulative excretion percentage (oral CNS 110 mg/kg, 12 h): 0.069±0.023%
Excretion amount (oral CNS 110 mg/kg, 12 h): 0.035 ± 0.015 µg
Accumulative excretion amount (oral CNS 110 mg/kg, 24 h): 0.381 ± 0.153 µg
Accumulative excretion percentage (oral CNS 110 mg/kg, 24 h): 0.081±0.032%
Excretion amount (oral CNS 110 mg/kg, 24 h): 0.058 ± 0.054 µg
Accumulative excretion amount (oral CNS 110 mg/kg, 36 h): 0.411 ± 0.177 µg
Accumulative excretion percentage (oral CNS 110 mg/kg, 36 h): 0.087±0.037%
Excretion amount (oral CNS 110 mg/kg, 36 h): 0.030 ± 0.037 µg
Accumulative excretion amount (oral CNS 110 mg/kg, 48 h): 0.447 ± 0.206 µg
Accumulative excretion percentage (oral CNS 110 mg/kg, 48 h): 0.095±0.044%
Excretion amount (oral CNS 110 mg/kg, 48 h): 0.03 ± 0.038 µg
Accumulative excretion amount (oral CNS 110 mg/kg, 72 h): 0.460 ± 0.207 µg
Accumulative excretion percentage (oral CNS 110 mg/kg, 72 h): 0.097±0.044%
Excretion amount (oral CNS 110 mg/kg, 72 h): 0.013 ± 0.017 µg
Accumulative excretion amount (oral CNS 110 mg/kg, 96 h): 0.468 ± 0.217 µg
Accumulative excretion percentage (oral CNS 110 mg/kg, 96 h): 0.099±0.046%
Excretion amount (oral CNS 110 mg/kg, 96 h): 0.008 ± 0.012 µg
Accumulative excretion amount (oral CNS 110 mg/kg, 120 h): 0.472 ± 0.219 µg
Accumulative excretion percentage (oral CNS 110 mg/kg, 120 h): 0.100±0.046%
Excretion amount (oral CNS 110 mg/kg, 120 h): 0.004 ± 0.005 µg
Accumulative excretion amount (oral NS 60 mg/kg, 2 h): 0.304 ± 0.161 µg
Accumulative excretion percentage (oral NS 60 mg/kg, 2 h): 0.064±0.030%
Excretion amount (oral NS 60 mg/kg, 2 h): 0.304 ± 0.161 µg
Accumulative excretion amount (oral NS 60 mg/kg, 4 h): 0.390 ± 0.199 µg
Accumulative excretion percentage (oral NS 60 mg/kg, 4 h): 0.072±0.037%
Excretion amount (oral NS 60 mg/kg, 4 h): 0.129 ± 0.051 µg
Accumulative excretion amount (oral NS 60 mg/kg, 6 h): 0.509 ± 0.225 µg
Accumulative excretion percentage (oral NS 60 mg/kg, 6 h): 0.096±0.042%
Excretion amount (oral NS 60 mg/kg, 6 h): 0.143 ± 0.125 µg
Accumulative excretion amount (oral NS 60 mg/kg, 8 h): 0.625 ± 0.321 µg
Accumulative excretion percentage (oral NS 60 mg/kg, 8 h): 0.127±0.059%
Excretion amount (oral NS 60 mg/kg, 8 h): 0.173 ± 0.121 µg
Accumulative excretion amount (oral NS 60 mg/kg, 12 h): 0.721 ± 0.406 µg
Accumulative excretion percentage (oral NS 60 mg/kg, 12 h): 0.138±0.075%
Excretion amount (oral NS 60 mg/kg, 12 h): 0.096 ± 0.087 µg
Accumulative excretion amount (oral NS 60 mg/kg, 24 h): 0.745 ± 0.403 µg
Accumulative excretion percentage (oral NS 60 mg/kg, 24 h): 0.149±0.074%
Excretion amount (oral NS 60 mg/kg, 24 h): 0.024 ± 0.015 µg
Accumulative excretion amount (oral NS 60 mg/kg, 36 h): 0.782 ± 0.377 µg
Accumulative excretion percentage (oral NS 60 mg/kg, 36 h): 0.141±0.070%
Excretion amount (oral NS 60 mg/kg, 36 h): 0.044 ± 0.046 µg
Accumulative excretion amount (oral NS 60 mg/kg, 48 h): 0.802 ± 0.380 µg
Accumulative excretion percentage (oral NS 60 mg/kg, 48 h): 0.152±0.070%
Excretion amount (oral NS 60 mg/kg, 48 h): 0.020 ± 0.022 µg
Accumulative excretion amount (oral NS 60 mg/kg, 72 h): 0.809 ± 0.391 µg
Accumulative excretion percentage (oral NS 60 mg/kg, 72 h): 0.156±0.072%
Excretion amount (oral NS 60 mg/kg, 72 h): 0.007 ± 0.017 µg
Accumulative excretion amount (oral NS 60 mg/kg, 96 h): 0.814 ± 0.399 µg
Accumulative excretion percentage (oral NS 60 mg/kg, 96 h): 0.154±0.074%
Excretion amount (oral NS 60 mg/kg, 96 h): 0.005 ± 0.010 µg
Accumulative excretion amount (oral NS 60 mg/kg, 120 h): 0.819 ± 0.408 µg
Accumulative excretion percentage (oral NS 60 mg/kg, 120 h): 0.154±0.075%
Excretion amount (oral NS 60 mg/kg, 120 h): 0.004 ± 0.010 µg
